From US7223780B2, “Triazole-derivatives as blood clotting enzyme factor Xa inhibitors” (Sanofi-Aventis Deutschland GmbH, priority 2003, dated 2007)
pKi: −log10 of the molar value.

Target: T1, human factor Xa (Homo sapiens, UniProt P00742)
T1 construct: 25 μl human factor Xa (Enzyme Research Laboratories, Inc; South Bend, Ind.); purchased Enzyme Research Laboratories, Inc; South Bend, Ind
Assay: Factor Xa chromogenic assay (substrate S-2765)
Type: biochemical
Details: inhibition constant for factor Xa, calculated from IC50 by Ki=IC50/{1+(substrate concentration/Km)}; 0.5 nM enzyme, 140 μM S-2765, 25° C.; read-out: Ki(FXa)
Experimental: The ability of the compounds of the formula I or II to inhibit factor Xa or factor VIIa or other enzymes like thrombin, plasmin, or trypsin can be assessed by determining the concentration of the compound of the formula I or II that inhibits enzyme activity by 50%, i.e. the IC50 value, which was related to the inhibition constant Ki. Purified enzymes were used in chromogenic assays. The concentration of inhibitor that causes a 50% decrease in the rate of substrate hydrolysis was determined by linear regression after plotting the relative rates of hydrolysis (compared to the uninhibited control) versus the log of the concentration of the compound of formulae I, II, Ia, Ib, Ic, Id, IIa, IIb or IId. For calculating the inhibition constant Ki, the IC50 value was corrected for competition with substrate using the formula Ki=IC50/{1+(substrate concentration/Km)} wherein Km is the Michaelis-Menten constant (Chen and Prusoff, Biochem. Pharmacol. 22 (1973) 3099–3108; I. H. Segal, Enzyme Kinetics, 1975, John Wiley & Sons, New York, 100–125; which were incorporated herein by reference). a) Factor Xa Assay
In the assay for determining the inhibition of factor Xa activity TBS-PEG buffer (50 mM Tris-HCl, pH 7.8, 200 mM NaCl, 0.05% (w/v) PEG-8000, 0.02% (w/v) NaN3) was used. The IC50 was determined by combining in appropriate wells of a Costar half-area microtiter plate 25 μl human factor Xa (Enzyme Research Laboratories, Inc.; South Bend, Ind.) in TBS-PEG; 40 μl 10% (v/v) DMSO in TBS-PEG (uninhibited control) or various concentrations of the compound to be tested diluted in 10% (v/v) DMSO in TBS-PEG; and substrate S-2765 (N((α)-benzyloxycarbonyl-D-Arg-Gly-L-Arg-p-nitroanilide; Kabi Pharmacia, Inc.; Franklin, Ohio) in TBS-PEG.
The assay was performed by pre-incubating the compound of formula I or II plus enzyme for 10 min. Then the assay was initiated by adding substrate to obtain a final volume of 100 μl. The initial velocity of chromogenic substrate hydrolysis was measured by the change in absorbance at 405 nm using a Bio-tek Instruments kinetic plate reader (Ceres UV900HDi) at 25° C. during the linear portion of the time course (usually 1.5 min after addition of substrate). The enzyme concentration was 0.5 nM and substrate concentration was 140 μM.

T1 sequence (P00742 235-488 limits assumed): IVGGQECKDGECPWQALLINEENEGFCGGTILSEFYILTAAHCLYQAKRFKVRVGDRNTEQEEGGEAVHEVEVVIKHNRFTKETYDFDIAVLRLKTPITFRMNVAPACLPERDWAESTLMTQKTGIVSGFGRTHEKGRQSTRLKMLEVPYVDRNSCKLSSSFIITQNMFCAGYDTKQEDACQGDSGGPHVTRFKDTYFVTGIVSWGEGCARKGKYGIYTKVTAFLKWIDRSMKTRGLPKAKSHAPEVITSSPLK
T1 sequence (P00742 41-179 partner limits assumed): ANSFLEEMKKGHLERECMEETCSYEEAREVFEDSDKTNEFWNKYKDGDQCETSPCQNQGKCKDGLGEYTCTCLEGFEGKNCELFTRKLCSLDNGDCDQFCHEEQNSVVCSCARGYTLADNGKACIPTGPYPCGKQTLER

| pKi | SMILES |
| --- | --- |
| 7.27 | CC(C)N1CCC(NC(=O)c2nc(-n3cccc3)n(Cc3cc(-c4ccc(Cl)s4)on3)n2)CC1 [Example 1, 1-[5-(5-Chloro-thiophen-2-yl)-isoxazol-3-ylmethyl]-5-pyrrol-1-yl-1H-[1,2,4]triazole-3-carboxylic acid (1-isopropyl-piperidin-4-yl)-amide] |
| 7.00 | CC(C)N1CCC(NC(=O)c2nc(-c3ccccn3)nn2Cc2cc(-c3ccc(Cl)s3)on2)CC1 [Example 3, 2-[5-(5-Chloro-thiophen-2-yl)-isoxazol-3-ylmethyl]-5-pyridin-2-yl-2H-[1,2,4]triazole-3-carboxylic acid (1-isopropyl-piperidin-4-yl)-amide] |
| 6.48 | CC(C)N1CCC(NC(=O)c2nnn(Cc3cc(-c4ccc(Cl)s4)on3)n2)CC1 [Example 5, 2-[5-(5-Chloro-thiophen-2-yl)-isoxazol-3-ylmethyl]-2H-tetrazole-5-carboxylic acid (1-isopropyl-piperidin-4-yl)-amide] |
| 7.10 | CC(C)N1CCC(NC(=O)c2nc(-c3ccccn3)n(Cc3cc(-c4ccc(Cl)s4)on3)n2)CC1 [Example 2, 1-[5-(5-Chloro-thiophen-2-yl)-isoxazol-3-ylmethyl]-5-pyridin-2-yl-1H-[1,2,4]triazole-3-carboxylic acid (1-isopropyl-piperidin-4-yl)-amide] |
